Marks after values point to notes of the source that are not given here.
What was measured:
mice [1] = conditions: Wang S. S. 1995; cited from earlier work
[2] = system: 3-mercaptopropionic acid-induced epilepsy mice model; test: 3-mercaptopropionic acid-induced epilepsy experimental model; assay type: in vivo; conditions: for clonic seizures / latency / mortality rate / tonic seizures: n=6
Text: (4) 3-mercaptopropionic Acid-induced Epilepsy Experimental Model

[3] = system: pentylenetetrazole-induced epilepsy mice model; test: Pentylenetetrazole-induced epilepsy experimental model; conditions: for clonic seizures / latency / mortality rate / tonic seizures: n=6
Method: In order to deduce the possible anticonvulsant mechanism of α-Asaronol 3,4,5-trimethoxycinnamate, in this study, pentylenetetrazole, 3-mercaptopropionic acid and other chemical test modes were used to initially evaluate the anticonvulsant activity of the test compound (i.g: 160 mg/kg, 80 mg/kg, 40 mg/kg).
(3) Pentylenetetrazole-induced Epilepsy Experimental Model
Procedure: mice were randomly divided into five groups: treatment group (i.g: 160 mg/kg, 80 mg/kg, 40 mg/kg), control group and blank group (n=6). The treatment group was intragastrically administrated with the test compound, the control group with the positive drug carbamazepine, and the blank group with physiological saline. After 30 minutes, the mice were intragastrically administrated with pentylenetetrazole at 200 mg/kg. Each test animal was placed in one cage and observed for 60 minutes. The latency of clonic seizures, the number of clonic seizures, the number of tonic seizures, and the number of deaths for mice of each group were recorded.

KM mice = test: Maximal Electroshock Seizure (MES) test; assay type: in vivo; conditions: for MES: 6 mice
Method: (§1) The antiepileptic pharmacological tests were carried out using the anti-epileptic drug development program implemented by the National Institutes of Health (NIH), comprising the Maximal Electroshock Seizure (MES) for evaluating antiepileptic activity and the Rotarodtest for examining neurotoxicity. In order to further study and evaluate the pharmacological mechanism of anticonvulsant effect in different chemical models, two classic chemical model pentarotetrazole and 3-mercaptopropionic acid were used.
(1) Maximal Electroshock Seizure (MES)
Procedure: KM mice were subjected to the following preliminary screening before they were tested, and only qualified mice were screened for the next experiment. The screening method was performed as follows: the day before the test, the test mice electrically stimulated at 15V, 60 Hz, wherein two electrodes were clamped in each ear of the mice and powered for 0.45 seconds. Mice with hind limb rigidity were included in the experimental mice and used for later experiments. The Maximal Electroshock Seizure tolerance test was performed as follows: mice were administered intragastrically with the test compound after it is dissolved, and then at 0.25 h, 0.5 h, 1 h, 2 h, 3 h and 4 h after the administration, stimulated with the electrodes in their ears at 15V, 60 Hz electric stimulation for 0.45 s, respectively. […] According to the dosing regimen, concentration gradient was designed and the mice were administered with the test compound at different concentration gradient and observed for the anticonvulsant activity. Finally, the half effective dose of the test compound at the maximum anticonvulsant activity was calculated according to the following equation: ED50=1 g^−1[Xm−i(ΣP−0.5)] SX50=i(ΣP−ΣP^2/n−1)^1/2 • 95% confidence limit for ED50=1 g^−1(1 gED50±1.96 SX50) • wherein the meanings of the symbols in the equation are as follows: • Xm common logarithm for the maximum dose; • i common logarithm for the ratio between doses • p positive rate for each group, expressed in decimal places • n the number of animals per group • SX50 standard error of 1 gED50

[4] = Neurotoxicity test (Rotarod test); assay type: in vivo; conditions: KM, mouse, in vivo, po
Method: as §1
(§2) Procedure: experimental mice were place on a rotating bar fatigue device rotating at 16 revolutions per minute at 0.25 h, 0.5 h, 1 h, and 2 h after intragastric administration, respectively. […] According to the dosing regimen, concentration gradient was designed and the mice was administered with the test compound at different concentration gradient and observed for the anticonvulsant activity. Half toxic dose (TD50) was calculated according to the following equation: TD50=1 g^−1[Xm−i(ΣP−0.5)] SX50=i(ΣP−σP^2/n−1)^1/2 • 95% confidence limit for TD50=1 g^−1(1 gTD50±1.96 SX50) • wherein the meanings of the symbols in the equation are as follows: • Xm common logarithm for the maximum dose; • i common logarithm for the ratio between doses • p positive rate for each group, expressed in decimal places • n the number of animals per group • SX50 standard error of 1 gTD50

mice [5] = test: Neurotoxicity test (Rotarod test); assay type: in vivo
Method: as §1, §2

## COC(=O)C=Cc1cc(OC)c(OC)c(OC)c1 [M-TMCA, methyl 3,4,5-trimethoxycinnamic acid]
Mice [1]
  time of pentobarbital sodium-induced sleep in mice: prolong

## COc1ccc(C=CC(=O)O)cc1 [PMCA, p-methoxycinnamic acid]
Mice [1]
  time of pentobarbital sodium-induced sleep in mice: prolong

## COc1cc(C=CC(=O)O)cc(OC)c1OC [TMCA, 3,4,5-trimethoxycinnamic acid]
Mice [1]
  time of pentobarbital sodium-induced sleep in mice: prolong

## NC(=O)N1c2ccccc2C=Cc2ccccc21 [carbamazepine, reference compound]
[2]; i.g. 83 mg/kg
  clonic seizures: 100%
  latency: 277.2 ± 93.1 s
  mortality rate: 33.3%
  tonic seizures: 33.3%
[3]; i.g. 83 mg/kg
  clonic seizures: 100%
  latency: 476.8 ± 100.5 s
  mortality rate: 50%
  tonic seizures: 33.3%

## COc1cc(OC)c(OC)cc1/C=C/COC(=O)/C=C/c1cc(OC)c(OC)c(OC)c1
KM mice; Mus musculus, po, MES, mice, i.g., 95% confidence limit 63.1-128.8, read-out: ED50 (half effective dose)
  ED50: 90.3 mg/kg
KM mice; i.g. 40 mg/kg, 0.25 h
  MES: 4/6
KM mice; i.g. 40 mg/kg, 0.5 h
  MES: 5/6
KM mice; i.g. 40 mg/kg, 1 h
  MES: 6/6
KM mice; i.g. 40 mg/kg, 2 h
  MES: 6/6
KM mice; i.g. 40 mg/kg, 3 h
  MES: 6/6
KM mice; i.g. 40 mg/kg, 4 h
  MES: 6/6
KM mice; i.g. 56 mg/kg, 0.25 h
  MES: 3/6
KM mice; i.g. 56 mg/kg, 0.5 h
  MES: 4/6
KM mice; i.g. 56 mg/kg, 1 h
  MES: 4/6
KM mice; i.g. 56 mg/kg, 2 h
  MES: 5/6
KM mice; i.g. 56 mg/kg, 3 h
  MES: 5/6
KM mice; i.g. 56 mg/kg, 4 h
  MES: 5/6
KM mice; i.g. 78 mg/kg, 0.25 h
  MES: 3/6
KM mice; i.g. 78 mg/kg, 0.5 h
  MES: 3/6
KM mice; i.g. 78 mg/kg, 1 h
  MES: 3/6
KM mice; i.g. 78 mg/kg, 2 h
  MES: 3/6
KM mice; i.g. 78 mg/kg, 3 h
  MES: 4/6
KM mice; i.g. 78 mg/kg, 4 h
  MES: 4/6
KM mice; i.g. 110 mg/kg, 0.25 h
  MES: 2/6
KM mice; i.g. 110 mg/kg, 0.5 h
  MES: 1/6
KM mice; i.g. 110 mg/kg, 1 h
  MES: 1/6
KM mice; i.g. 110 mg/kg, 2 h
  MES: 2/6
KM mice; i.g. 110 mg/kg, 3 h
  MES: 3/6
KM mice; i.g. 110 mg/kg, 4 h
  MES: 3/6
KM mice; i.g. 154 mg/kg, 0.25 h after administration
  MES: 1/6^c
KM mice; i.g. 154 mg/kg, 0.5 h
  MES: 0
KM mice; i.g. 154 mg/kg, 1 h
  MES: 1/6
KM mice; i.g. 154 mg/kg, 2 h
  MES: 1/6
KM mice; i.g. 154 mg/kg, 3 h
  MES: 3/6
KM mice; i.g. 154 mg/kg, 4 h
  MES: 3/6
KM mice; mice, i.g.
  anticonvulsant activity in the Maximal Electroshock Seizure test (in words): good anticonvulsant activity
[4]
  TD50: 940 mg/kg
Mice [5]; mice, i.g., rotarod TD50 / MES ED50
  PI, protection index (TD50/ED50): 10.4
Mice [5]; mouse, in vivo
  toxicity (in words): did not show significant toxicity
[2]; 160 mg/kg, 80 mg/kg
  effect on inhibiting the tonic seizure and reducing the mortality compared with carbamazepine: comparable effect
[2]; 160 mg/kg, 80 mg/kg, p<0.05
  time of clonic seizure compared with the physiological saline group: significantly prolong
[2]; i.g. 40 mg/kg
  clonic seizures: 100%
  latency: 185.3 ± 39.8 s
  mortality rate: 50%
  tonic seizures: 50%
[2]; i.g. 80 mg/kg
  clonic seizures: 83.3%
  latency: 192.8 ± 85.1 s
  mortality rate: 33.3%
  tonic seizures: 33.3%
[2]; i.g. 160 mg/kg, 30 min before 3-mercaptopropionic acid 60 mg/kg
  latency: 241.5 ± 80.4 s
[2]; i.g. 160 mg/kg
  clonic seizures: 50%
  mortality rate: 33.3%
  tonic seizures: 33.3%
[2]; mouse, in vivo
  3-mercaptopropionic acid-induced seizures (in words): moderately reduce
[3]; 160 mg/kg, 80 mg/kg, 40 mg/kg, p<0.05
  time of clonic seizure compared with the physiological saline group: significantly prolong
[3]; at the same dose
  effect on inhibiting the tonic seizure and reducing the mortality compared with carbamazepine: comparable effect
[3]; i.g. 40 mg/kg
  clonic seizures: 100%
  latency: 205.6 ± 40.5 s
  mortality rate: 100%
  tonic seizures: 50%
[3]; i.g. 80 mg/kg
  clonic seizures: 83.3%
  latency: 253.6 ± 58.2 s
  mortality rate: 66.7%
  tonic seizures: 33.3%
[3]; i.g. 160 mg/kg, 30 min before pentylenetetrazole 200 mg/kg
  latency: 370.0 ± 84.8 s
[3]; i.g. 160 mg/kg
  clonic seizures: 50%
  mortality rate: 16.7%
  tonic seizures: 33.3%

Source: US10131619B2, “α-Asary-laldehyde ester, preparation method therefor, and application thereof” (NORTHWEST UNIVERSITY, priority 2014, dated 2018)
